Numbered stars: 1 amine (or outer) side, 2 acyl side, 3 side chain; on linkers, the order of the positions; unused ones are H or OH. Bridge positions count the residues as written; N and C are the ends. Square brackets hold non-standard residues; d marks the D form. Peptide text beside a SMILES is read from it. X2 = CCCc1cccc2c(C[C@H](N[*:1])C(=O)[*:2])c[nH]c12; Trp(7-Me) = Cc1cccc2c(C[C@H](N)C(=O)O)c[nH]c12; 2Nal = N[C@@H](Cc1ccc2ccccc2c1)C(=O)O; AEF = NCCOc1ccc(C[C@H](N)C(=O)O)cc1; Cit = NC(=O)NCCC[C@H](N)C(=O)O; Pen = CC(C)(S)[C@H](N)C(=O)O; αMeK = C[C@](N)(CCCCN)C(=O)O
Key:
in vitro [1] = conditions: both, SD, rat, plasma (EDTA)
in vitro [2] = conditions: human, 20% fecal homogenate (supernatant), anaerobic, pH 6.8
in vitro [3] = conditions: cynomolgus monkey, 20% fecal homogenate (supernatant), anaerobic, pH 6.8
in vitro [4] = type: in vitro ADME; design: half-life: dose or concentration left out as unconfirmed; conditions: simulated intestinal fluid (SIF) with pancreatin, pH 6.8, 37° C., § matrix is 100 fold dilution of standard SIF concentration, read-out: SIF t½ (converted)
Procedure: SIF was prepared by adding 6.8 g of monobasic potassium phosphate and 10.0 g of pancreatin to 1.0 L of water. After dissolution, the pH was adjusted to 6.8 using NaOH. DMSO stocks (2 mM) were first prepared for the test compounds. Aliquots of the DMSO solutions were dosed into 6 individual tubes, each containing 0.5 mL of SIF, which is pre-warmed to 37° C. The final test compound concentration was 20 M. The vials were kept in a benchtop Thermomixer® for the duration of the experiment. At each timepoint (0, 5, 10, 20, 40, 60, or 360 minutes or 24 hours), 1.0 mL of acetonitrile containing 1% formic acid was added to one vial to terminate the reaction. Samples were stored at 4° C. until the end of the experiment. After the final timepoint is sampled, the tubes were mixed and then centrifuged at 3,000 rpm for 10 minutes. Aliquots of the supernatant were removed, diluted 1:1 into distilled water containing internal standard, and analyzed by LCMS/MS. Percent remaining at each timepoint was calculated based on the peak area response ratio of test to compound to internal standard. Time 0 was set to 100%, and all later timepoints were calculated relative to time 0. Half-lives were calculated by fitting to a first-order exponential decay equation using Graphpad.

IL-23R = biological target: T1, IL-23R (Homo sapiens, UniProt Q5VWK5); test: DB cells IL23R pSTAT3 cell assay (pStat3 HTRF); type: cell-based; conditions: Table E3; DB cells, IL-23 0.5 nM, 30 minutes at 37° C.; read-out: pStat3 HTRF (IC50)
T1 sequence (Q5VWK5 24-629): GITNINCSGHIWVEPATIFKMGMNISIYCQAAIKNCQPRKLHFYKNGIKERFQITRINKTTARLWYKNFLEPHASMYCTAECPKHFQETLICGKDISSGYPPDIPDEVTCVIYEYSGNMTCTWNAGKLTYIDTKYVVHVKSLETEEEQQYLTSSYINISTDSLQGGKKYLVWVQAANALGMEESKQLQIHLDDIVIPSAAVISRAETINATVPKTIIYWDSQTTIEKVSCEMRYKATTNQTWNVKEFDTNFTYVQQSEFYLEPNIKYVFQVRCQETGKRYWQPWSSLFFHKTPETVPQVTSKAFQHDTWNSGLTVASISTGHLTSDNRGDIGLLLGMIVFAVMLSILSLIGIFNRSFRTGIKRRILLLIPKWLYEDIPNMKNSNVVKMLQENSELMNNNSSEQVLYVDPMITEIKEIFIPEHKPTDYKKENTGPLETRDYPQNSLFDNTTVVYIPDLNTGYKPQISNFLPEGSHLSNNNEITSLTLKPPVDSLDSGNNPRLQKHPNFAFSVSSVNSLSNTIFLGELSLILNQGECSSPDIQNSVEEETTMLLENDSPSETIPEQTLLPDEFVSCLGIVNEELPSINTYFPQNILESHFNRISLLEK
Outline: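 DB cells (5×10E5/well, RPMI-1640 + 10% FBS) stimulated with 0.5 nM final IL-23 plus serially diluted test peptides for 30 min at 37 °C, 5% CO2. Phospho-STAT3 (Tyr705) in lysates measured by HTRF using a two-plate protocol.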

Compound | half-life at 20 μM (in vitro [1]) [h] | half-life at 20 μM (in vitro [2]) [h] | half-life at 20 μM (in vitro [3]) [h] | half-life (in vitro [4]) [h] | IC50 (IL-23R) [nM]
CCCc1cccc2c(C[C@@H]3NC(=O)[C@H]([C@@H](C)O)NC(=O)[C@H](CC(N)=O)NC(=O)[C@@H](NC(C)=O)C(C)(C)SSC(C)(C)[C@@H](C(=O)N[C@@H](Cc4ccc(OCCN)cc4)C(=O)N[C@@H](Cc4ccc5ccccc5c4)C(=O)N[C@@](C)(CCCCN)C(=O)N[C@@H](CCCCNC(C)=O)C(=O)N[C@@H](CC(N)=O)C(=O)N[C@H](CC(C)C)C(N)=O)NC(=O)[C@H](CCCCNC(C)=O)NC3=O)c[nH]c12 [compound 285] (Ac-[Pen]NT[X2]K(Ac)[Pen][AEF][2Nal][αMeK]K(Ac)N[dL]-NH2; disulfide 1-6) | > 24 | > 24 | > 24 | 9 | < 1
CC(=O)NCCCC[C@@H]1NC(=O)[C@H](Cc2c[nH]c3c(C)cccc23)NC(=O)[C@H]([C@@H](C)O)NC(=O)[C@H](CC(N)=O)NC(=O)[C@@H](NC(C)=O)C(C)(C)SSC(C)(C)[C@@H](C(=O)N[C@@H](Cc2ccc(OCCN)cc2)C(=O)N[C@@H](Cc2ccc3ccccc3c2)C(=O)N[C@@](C)(CCCCN)C(=O)N[C@@H](CCCCNC(C)=O)C(=O)N[C@@H](CC(N)=O)C(=O)N2CCC[C@H]2C(N)=O)NC1=O [compound 253] | > 24 | 1 | 3 | 11 | 1 to 10
CC(=O)NCCCC[C@H](NC(=O)[C@](C)(CCCCN)NC(=O)[C@H](Cc1ccc2ccccc2c1)NC(=O)[C@H](Cc1ccc(OCCN)cc1)NC(=O)[C@H]1NC(=O)[C@H](CCCNC(N)=O)NC(=O)[C@H](Cc2c[nH]c3c(C)cccc23)NC(=O)[C@H]([C@@H](C)O)NC(=O)[C@H](CC(N)=O)NC(=O)[C@@H](NC(C)=O)C(C)(C)SSC1(C)C)C(=O)N[C@@H](CC(N)=O)C(=O)N[C@H](CO)C(N)=O [compound 261] (Ac-[Pen]NT[Trp(7-Me)][Cit][Pen][AEF][2Nal][αMeK]K(Ac)N[dS]-NH2; disulfide 1-6) | > 24 | > 24 | 4 | 18 | < 1
CC(=O)NCCCC[C@@H]1NC(=O)[C@H](Cc2c[nH]c3c(C)cccc23)NC(=O)[C@H]([C@@H](C)O)NC(=O)[C@H](CC(N)=O)NC(=O)[C@@H](NC(C)=O)C(C)(C)SSC(C)(C)[C@@H](C(=O)N[C@@H](Cc2ccc(OCCN)cc2)C(=O)N[C@@H](Cc2ccc3ccccc3c2)C(=O)N[C@@](C)(CCCCN)C(=O)N[C@@H](CCCCNC(C)=O)C(=O)N[C@@H](CC(N)=O)C(=O)N[C@@H](CCCNC(=N)N)C(N)=O)NC1=O [compound 243] | 21 | 1 |  | < 1 | 1 to 10
CC(=O)NCCCC[C@@H]1NC(=O)[C@H](Cc2c[nH]c3c(C)cccc23)NC(=O)[C@H]([C@@H](C)O)NC(=O)[C@H](CC(N)=O)NC(=O)[C@@H](NC(C)=O)C(C)(C)SSC(C)(C)[C@@H](C(=O)N[C@@H](Cc2ccc(OCCN)cc2)C(=O)N[C@@H](Cc2ccc3ccccc3c2)C(=O)N[C@@](C)(CCCCN)C(=O)N[C@@H](CCCCNC(C)=O)C(=O)N[C@@H](CC(N)=O)C(=O)N[C@@H](CC(C)C)C(N)=O)NC1=O [compound 244] | > 24 | 19 |  | 1 | 1 to 10
CC(=O)NCCCC[C@@H]1NC(=O)[C@H](Cc2c[nH]c3c(C)cccc23)NC(=O)[C@H]([C@@H](C)O)NC(=O)[C@H](CC(N)=O)NC(=O)[C@@H](NC(C)=O)C(C)(C)SSC(C)(C)[C@@H](C(=O)N[C@@H](Cc2ccc(OCCN)cc2)C(=O)N[C@@H](Cc2ccc3ccccc3c2)C(=O)N[C@@](C)(CCCCN)C(=O)N[C@@H](CCCCNC(C)=O)C(=O)N[C@@H](CC(N)=O)C(=O)N[C@@H](Cc2c[nH]cn2)C(N)=O)NC1=O [compound 248] | > 24 | > 24 | 6 | 3 | 
